Measurements published in paper PMC1082716, “Blockade of chemokine-induced signalling inhibits CCR5-dependent HIV infection in vitro without blocking gp120/CCR5 interaction” (Retrovirology, 2005).

Columns and labels:
CXCR4 = target: T1, CXCR4 (Homo sapiens, UniProt P61073); test: Specific binding of biotinylated gp120:V3(IIIb) peptide to Jurkat cells; conditions: 100 μM biotinylated gp120:V3(IIIb); various concentrations of inhibitor; 10^6 cells in 100 μl, 4°C; triplicate
T1 construct: CXCR4, which is expressed on both THP-1 and Jurkat cells, but at higher levels on the T-cell line; endogenous in cells; host or cells: Jurkat T-cells (whole cells, 10^6 per well, 4°C)
T1 sequence (P61073 whole entry): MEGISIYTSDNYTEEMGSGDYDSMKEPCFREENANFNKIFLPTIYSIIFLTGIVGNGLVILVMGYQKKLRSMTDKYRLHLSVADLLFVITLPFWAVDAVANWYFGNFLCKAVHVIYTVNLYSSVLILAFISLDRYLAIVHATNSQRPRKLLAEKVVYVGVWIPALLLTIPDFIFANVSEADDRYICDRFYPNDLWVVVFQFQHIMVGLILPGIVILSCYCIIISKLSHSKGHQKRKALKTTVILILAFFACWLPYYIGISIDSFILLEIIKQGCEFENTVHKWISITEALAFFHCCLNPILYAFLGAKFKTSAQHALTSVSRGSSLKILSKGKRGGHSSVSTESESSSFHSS

HIV (IIIb) = HIV (IIIb) replication in Jurkat T-cells, supernatant reverse transcriptase activity; format: cell-based; conditions: HIV-1 IIIb 10^6 TCID50; Peptide 3 100 μM; two weeks; six separate experiments
Method: HIV infection of Jurkat T-cells using the laboratory-adapted T-tropic isolate IIIb was monitored using two different assays. Firstly, Jurkat T-cells in 96-well plates were pre-treated with either Peptide 3, vehicle (as a negative control) or SDF1α (as a positive control) for 4 hours, then exposed to HIV virus (10^6 TCID50) and pulsed at 2–3 day intervals with Peptide 3, SDF1α or medium alone as appropriate. After two weeks in culture, the extent of viral infection was assayed by measuring the reverse transcriptase activity in the supernatant, as a measure of viral replication in the culture In six separate experiments, Peptide 3 (100 μM) had no effect on virus replication following HIV exposure (Fig 3a), while SDF1α inhibited reverse transcriptase activity by an average of 75%. No effect was seen on cell viability under any of the treatment conditions.
HIV-1 stocks were prepared in the following manner. HIV-1 IIIb (provided by the MRC AIDS Reagent Programme) was used to infect Jurkat T cells and the progression of infection was monitored using the reverse transcriptase assay for 10–14 days. […] Stocks of HIV-1 MN strain were prepared in a similar manner, except that H9 T cells were used and the progression of infection was monitored by immunofluoresence (because of the low RT activity) in this strain. […]

chemokine receptors = conditions: ref [27]; cited from earlier work

EICADPKQKWVQ [Peptide 3]
Effect on binding of gp120:V3(IIIb) to Jurkat cells (CXCR4): no effect | Effect on virus replication following HIV exposure (reverse transcriptase activity) (HIV (IIIb)): no effect | Effect on binding of chemokine ligands to the receptors (chemokine receptors): do not block
